This is an account of results in patent US20090186942A1, “NOVEL NUTRACEUTICAL AND PHARMACEUTICAL COMPOSITIONS AND USE THEREOF FOR THE TREATMENT, CO-TREATMENT OR PREVENTION OF INFLAMMATORY DISORDERS” (priority 2006, published 2009).

What all share (format): cell-based
Assay [1] relates to murine macrophage indicator cell line, RAW267.4. In words: Inhibition of PGE2 production in LPS-stimulated macrophages (EIA). The note with it: single substances, RAW267.4 cells, LPS 1 μg/ml, 24 hours. On the procedure: (§1) Pure substances were then further assayed in vitro in cellular cell systems. The inhibition of the synthesis of nitric oxide and/or pro-inflammatory prostaglandins (PG) by the compounds was measured. PGE2 plays a critical role in the inflammation process, while nitric oxide (NO) is a hallmark of inflammation in various chronic inflammatory diseases including various forms of arthritis, gastro-intestinal diseases and metabolic syndrome X. The effects of compounds on the inflammatory response were tested in cellular assays using a murine macrophage indicator cell line, RAW267.4. The cells were purchased from ATCC (Manassas, Va., USA) and cultured in DMEM containing streptomycin/penicillin, non-essential amino acids and 10% fetal calf serum (FCS). In order to test a large range of concentration of compounds, cells (˜50,000/well) were seeded into flat-bottomed microtiter plates and cultured for one day. Cells were then starved in complete medium containing 0.25% FCS (D-025). After overnight culture, medium was removed and replaced by 100 μL of D-025 containing the test compounds at twice the final concentration. Subsequently, 100 μL of D-025 containing 2 μg/ml LPS was added (i.e. final LPS concentration of 1 μg/ml) and the cells cultured for 24 hours.
(§2) Substances were tested in a concentration range from 0.2 to 50 μM in two-fold dilution steps. Extracts were tested from 0.2 to 50 mg/L. All treatments were done in duplicates and several experimental series were done for each treatment. Concentrations of nitrite which was rapidly formed from nitric oxide released by cells were determined by the Griess reaction using sodium nitrite as standard. Briefly, 50 μl of supernatant was mixed with Griess reagent 1 (25 μL) and Griess reagent 2 (25 μL), centrifuged and the optical density at 540 nm determined. PGE2 secreted into the cell culture medium was determined by EIA obtained from Cayman Chemicals (Ann Harbor, […]., USA) and used according to the manufacturer's instructions. All determinations were done in duplicates and at various dilutions of the culture supernatant. IC50 values were calculated using a […] least-square fitting equation [y=A+((B−A)/(1+((C−x)̂D))] for best-fit curves (Excel fit software program).

Assay [2] has the same test system. In words: Inhibition of nitric oxide production in LPS-stimulated macrophages (Griess reaction). The note with it: single substances, RAW267.4 cells, LPS 1 μg/ml, 24 hours. As for the experimental part: as §1, §2
(Griess reagent forms a coloured azo dye with nitrite.)

Assay [3] concerns IL-6. The assay is described as follows: Expression of inflammatory genes by quantitative RT-PCR: IL-6. The note with it: RAW 264.7 cells, 4 hours. On the procedure:
(§3) The effect of the compounds has been evaluated on the level of the expression of genes that are involved in the inflammatory response. These comprise e.g. the following genes TNF-α, IL-6, MIP1β and NF-κB1 and NF-κBp49, the latter two of which are transcription factors involved in the regulation of inflammatory gene expression. After 4 hours, RNA was extracted and the expression of genes determined by quantitative RT-PCR as described (Richard, N., Porath, D., Radspieler, A. and Schwager, J. Effects of resveratrol, piceatannol, tri-acetoxystilbene, and genistein on the inflammatory response of human peripheral blood leukocytes. Mol Nutr Food Res 2005. 49: 431-442).

Assay [4] relates to macrophage inflammatory protein 1 [MIP-1]. In words: Expression of inflammatory genes by quantitative RT-PCR: MIP-1. The conditions noted are these: RAW 264.7 cells, 4 hours. As for the experimental part: as §3
Assay [5] deals with NF-κBp49. The assay is described as follows: Expression of inflammatory genes by quantitative RT-PCR: NF-κBp49. The note with it: RAW 264.7 cells, 4 hours. On the procedure: as §3
For assay [6], the system named is TNF-α. In words: Expression of inflammatory genes by quantitative RT-PCR: TNF-α. The note with it: RAW 264.7 cells, 4 hours. As for the experimental part:
as §3

Assay [7] concerns NF-κB1. In words: Expression of inflammatory genes by quantitative RT-PCR: NF-κB1. The note with it: RAW 264.7 cells, 4 hours. As for the experimental part:
as §3

`CCCCCC/C=C\CCCCCCCc1cccc(O)c1C(=O)O` [Ginkoic acid, Ginkgoic acid]: the IC50 – broadly, the concentration that inhibits the measured activity by half – in assay [1] is 57.8 µM; in assay [2], > 100 µM.
Consider `CCC/C=C\C/C=C\CCCCCCCc1cccc(O)c1C(=O)O` [(15:2)-Anacardic acid], for which the IC50 was 43.1 ± 5.5 µM in assay [1] and 82.4 ± 6.7 µM in assay [2].
Take `Oc1ccc(C=Cc2cc(O)cc(O)c2)cc1` [Resveratrol, reference compound]: the IC50 amounted to 24 ± 2 µM in assay [1] (Mus musculus) and 31 ± 2 µM in assay [2] (Mus musculus).
Turning to `C=CC/C=C\C/C=C\CCCCCCCc1cccc(O)c1C(=O)O` [(15:3)-Anacardic acid], the “% expression IL-6 mRNA relative to cells stimulated with LPS only” value was 65% in assay [3] (6.25 μM/L) and 71% in assay [3] (12.5 μM/L). Moreover, the “% expression MIP-1-α mRNA relative to cells stimulated with LPS only” value in assay [4] (6.25 μM/L) was determined as 58%; in assay [4] (12.5 μM/L), 41%. The “Effect on MIP-1β expression (in words)” value in assay [4] was “significantly reduced”. Moreover, the “% expression NF-κBp49 mRNA relative to cells stimulated with LPS only” value in assay [5] (6.25 μM/L) came to 74%; in assay [5] (12.5 μM/L), 57%. Further, the “% expression TNF-α mRNA relative to cells stimulated with LPS only” value in assay [6] (6.25 μM/L) is 76%; in assay [6] (12.5 μM/L), 54%. Besides, the “Effect on TNF-α expression (in words)” value in assay [6] is reported as “significantly reduced”. The figures for the “% expression NF-κB1 mRNA relative to cells stimulated with LPS only” value in assay [7] (6.25 μM/L) and in assay [7] (12.5 μM/L) were 86% and 78%, respectively. Further, the figures for the IC50 in assay [1] and in assay [2] were 26.6 ± 21.1 µM and 7.4 ± 0.4 µM, respectively.
As to `O=C(O[C@@H]1Cc2c(O)cc(O)cc2O[C@@H]1c1cc(O)c(O)c(O)c1)c1cc(O)c(O)c(O)c1` [EGCG, reference compound], the IC50 in assay [1] worked out at 35 µM; in assay [2], 33 ± 2 µM.
In the case of `C=CC/C=C\C/C=C\CCCCCCCc1cc(O)cc(O)c1` [Cardoltriene], the IC50 came to 0.9 ± 0.2 µM in assay [1] and 4.9 ± 0.8 µM in assay [2].
